# Patent publication US9845308B2, “Isoindoline inhibitors of ROR-gamma” (Vitae Pharmaceuticals, Inc., priority 2014, dated 2017)
# Columns and labels:
# [1] = molecular target: recombinant RORγ Ligand Binding Domain (LBD) protein (Homo sapiens (Human), UniProt P51449); experiment: Radio-Ligand RORγ Binding Assay (Assay 1); conditions: competition with 25-hydroxy[26,27-3H]-cholesterol, SPA; read-out: RORγ Binding Ki Range* (nM) (Assay 1)
# Description: Radio-Ligand RORγ Binding Assay (Assay 1)
# Compounds of the present invention were tested for ability to bind to RORγ in a cell-free competition assay with commercially available radio-ligand (RL), 25-hydroxy[26,27-^3H]-cholesterol (PerkinElmer, Cat. #NET674250UC), for a ligand binding site on a recombinant RORγ Ligand Binding Domain (LBD) protein expressed as a 6×His-Glutathione-S-Transferase (GST) fusion. […] The plate was shaken at 700 rpm for 20 min and incubated for 10 min at rt, after which 40 μL of poly-Lys YSi SPA beads (PerkinElmer, Cat. #RPNQ0010) were added to achieve 50 μg of the beads per well. The plate was incubated on an orbital shaker for 20 min and then for 10 min without agitation at rt. SPA signal for tritium beta radiation was registered on PerkinElmer Microbeta plate reader. […] The percent inhibition vs. concentration data were fit into a four-parameter model, and IC50 values were calculated from the fit as the concentrations corresponding to the inflection points on the dose-response curves. […]
# [2] = molecular target: full-length RORγt in Jurkat cells (Homo sapiens (Human), UniProt P51449); experiment: RORγt 5×RORE Assay in Jurkat Cells (Assay 2); type: cell-based; conditions: 5xRORE secreted Nanoluc luciferase reporter, 16-18 hrs, read-out: RORγt5X IC50 Range* (nM) (Assay 2)
# Description: [formula] RORγt 5×RORE Assay in Jurkat Cells (Assay 2)
# Compounds of the present invention were tested for RORγ inverse agonist activity in a cell-based, transcriptional activity assay. […] (Promega, Cat. #N1021) using KpnI and HindIII restriction sites. […] Tested compounds were added to the cells in the same media (final concentration of DMSO was 0.1% (v/v)), and the plates were incubated at 37° C./5% CO2 for 16-18 hrs. Luciferase activity in the conditioned supernatants was determined with NanoGlo® assay reagents (Promega, Cat.#N1130).
# recombinant RORγ Ligand Binding Domain (LBD) protein, sequence (P51449 269-508): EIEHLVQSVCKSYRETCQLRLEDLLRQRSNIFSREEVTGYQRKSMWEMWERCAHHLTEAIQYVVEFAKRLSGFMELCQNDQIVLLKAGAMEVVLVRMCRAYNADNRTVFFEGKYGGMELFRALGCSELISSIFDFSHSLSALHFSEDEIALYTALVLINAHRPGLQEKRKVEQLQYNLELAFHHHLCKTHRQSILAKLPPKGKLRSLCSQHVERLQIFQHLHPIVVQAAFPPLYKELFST
# full-length RORγt in Jurkat cells, sequence (P51449 other isoform, or with tags, fused parts or gaps): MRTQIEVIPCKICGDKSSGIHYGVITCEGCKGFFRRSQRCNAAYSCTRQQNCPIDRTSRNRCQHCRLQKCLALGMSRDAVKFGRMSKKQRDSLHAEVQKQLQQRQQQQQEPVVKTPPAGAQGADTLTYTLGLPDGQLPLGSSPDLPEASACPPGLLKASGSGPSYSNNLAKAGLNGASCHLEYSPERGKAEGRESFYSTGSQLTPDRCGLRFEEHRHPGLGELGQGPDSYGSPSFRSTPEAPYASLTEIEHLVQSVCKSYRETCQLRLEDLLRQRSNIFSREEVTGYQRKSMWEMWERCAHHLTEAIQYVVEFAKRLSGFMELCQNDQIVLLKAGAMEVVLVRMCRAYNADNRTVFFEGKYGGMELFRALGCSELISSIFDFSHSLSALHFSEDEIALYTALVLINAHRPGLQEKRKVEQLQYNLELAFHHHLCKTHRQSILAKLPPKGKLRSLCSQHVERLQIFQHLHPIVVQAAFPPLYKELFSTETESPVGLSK
Structure (SMILES),Ki [1] [nM],IC50 [2] [nM]
"CCO[C@H]1CC[C@H](CN2Cc3cc(C(=O)NCc4ccc(S(=O)(=O)CC)cn4)ccc3[C@@H]2C(C)C)CC1 (single isomer, unassigned) [Compound 7a, 2-((trans-4-ethoxycyclohexyl)methyl)-N-((5-(ethylsulfonyl)pyridin-2-yl)methyl)-1-isopropylisoindoline-5-carboxamide]",< 100,< 100
"CCO[C@H]1CC[C@H](CN2Cc3cc(C(=O)NCc4ccc(S(=O)(=O)CC)cn4)ccc3[C@H]2C(C)C)CC1 (single isomer, unassigned) [Compound 7b, 2-((trans-4-ethoxycyclohexyl)methyl)-N-((5-(ethylsulfonyl)pyridin-2-yl)methyl)-1-isopropylisoindoline-5-carboxamide]",> 1000,
"CCS(=O)(=O)c1ccc(CNC(=O)c2ccc3c(c2)CN(CC2CCC(O)(C(F)(F)F)CC2)C3C(C)C)cc1 (single isomer, unassigned) [Compound 12a, N-(4-(ethylsulfonyl)benzyl)-2-((4-hydroxy-4-(trifluoromethyl)cyclohexyl)methyl)-1-isopropylisoindoline-5-carboxamide]",< 100,< 100
"CCS(=O)(=O)c1ccc(CNC(=O)c2ccc3c(c2)CN(CC2CCC(O)(C(F)(F)F)CC2)C3C(C)C)cc1 (single isomer, unassigned) [Compound 12b, N-(4-(ethylsulfonyl)benzyl)-2-((4-hydroxy-4-(trifluoromethyl)cyclohexyl)methyl)-1-isopropylisoindoline-5-carboxamide]",< 100,> 1000
"CCS(=O)(=O)c1ccc(CNC(=O)c2ccc3c(c2)CN(CC2CCC(O)(C(F)(F)F)CC2)C3C(C)C)cc1 (single isomer, unassigned) [Compound 12c, N-(4-(ethylsulfonyl)benzyl)-2-((4-hydroxy-4-(trifluoromethyl)cyclohexyl)methyl)-1-isopropylisoindoline-5-carboxamide]",< 100,100 to 1000
"CCS(=O)(=O)c1ccc(CNC(=O)c2ccc3c(c2)CN(CC2CCC(O)(C(F)(F)F)CC2)C3C(C)C)cc1 (single isomer, unassigned) [Compound 12d, N-(4-(ethylsulfonyl)benzyl)-2-((4-hydroxy-4-(trifluoromethyl)cyclohexyl)methyl)-1-isopropylisoindoline-5-carboxamide]",< 100,< 100
"CCS(=O)(=O)N1CCC(CNC(=O)c2ccc3c(c2)CN(CC2CCC(OC)(C(F)(F)F)CC2)C3C(C)C)CC1 (single isomer, unassigned) [Compound 13a, N-((1-(ethylsulfonyl)piperidin-4-yl)methyl)-1-isopropyl-2-((4-methoxy-4-(trifluoromethyl)cyclohexyl)methyl)isoindoline-5-carboxamide]",< 100,100 to 1000
"CCS(=O)(=O)N1CCC(CNC(=O)c2ccc3c(c2)CN(CC2CCC(OC)(C(F)(F)F)CC2)C3C(C)C)CC1 (single isomer, unassigned) [Compound 13b, N-((1-(ethylsulfonyl)piperidin-4-yl)methyl)-1-isopropyl-2-((4-methoxy-4-(trifluoromethyl)cyclohexyl)methyl)isoindoline-5-carboxamide]",< 100,< 100
"COC1(C(F)(F)F)CCC(CN2Cc3cc(C(=O)NCC4CCN(S(C)(=O)=O)CC4)ccc3[C@@H]2C(C)C)CC1 (single isomer, unassigned) [Compound 14b]",< 100,> 1000
"CCS(=O)(=O)c1ccc(CNC(=O)c2ccc3c(c2)CN(CC2CCC(C(F)(F)F)OC2)[C@H]3C(C)C)nc1 (single isomer, unassigned) [Compound 16a]",< 100,< 100
"CCS(=O)(=O)c1ccc(CNC(=O)c2ccc3c(c2)CN(CC2CCC(C(F)(F)F)OC2)[C@H]3C(C)C)nc1 (single isomer, unassigned) [Compound 16b]",,< 100
"CC[C@H]1c2ccc(C(=O)N[C@@H](COC(N)=O)c3ccc(S(=O)(=O)CC)cc3)cc2CN1C[C@H]1CC[C@H](C(F)(F)F)CC1 (single isomer, unassigned) [Compound 24a]",< 100,< 100
"CC[C@H]1c2ccc(C(=O)N[C@@H](COC(N)=O)c3ccc(S(=O)(=O)CC)cc3)cc2CN1C[C@H]1CC[C@H](C(F)(F)F)CC1 (single isomer, unassigned) [Compound 24b]",< 100,> 1000
"CCS(=O)(=O)c1ccc(CNC(=O)c2ccc3c(c2)C(=O)N(Cc2ccc(C(F)(F)F)cc2)C3C(C)C)cc1 (single isomer, unassigned) [Compound 26a, N-(4-(ethylsulfonyl)benzyl)-1-isopropyl-3-oxo-2-(4-(trifluoromethyl)benzyl)isoindoline-5-carboxamide]",< 100,< 100
"CCS(=O)(=O)c1ccc(CNC(=O)c2ccc3c(c2)C(=O)N(Cc2ccc(C(F)(F)F)cc2)C3C(C)C)cc1 (single isomer, unassigned) [Compound 26b, N-(4-(ethylsulfonyl)benzyl)-1-isopropyl-3-oxo-2-(4-(trifluoromethyl)benzyl)isoindoline-5-carboxamide]",< 100,100 to 1000
"CCS(=O)(=O)c1ccc(CNC(=O)c2ccc3c(c2)CN(C[C@H]2CO[C@H](C(F)(F)F)OC2)[C@H]3C(C)C)nc1 (single isomer, unassigned) [Compound 32a]",< 100,< 100

Structure (SMILES),Ki [1] [nM],IC50 [2] [nM]
"CCS(=O)(=O)c1ccc(CNC(=O)c2ccc3c(c2)CN(C[C@H]2CO[C@H](C(F)(F)F)OC2)[C@H]3C(C)C)nc1 (single isomer, unassigned) [Compound 32b]",< 100,> 1000
CCS(=O)(=O)c1ccc([C@H](CO)NC(=O)c2ccc3c(c2)CN(C[C@H]2CC[C@H](C(F)(F)F)CC2)[C@H]3C(C)C)cc1 [Compound 3a],< 100,< 100
CCS(=O)(=O)c1ccc([C@H](CO)NC(=O)c2ccc3c(c2)CN(C[C@H]2CC[C@H](C(F)(F)F)CC2)[C@@H]3C(C)C)cc1 [Compound 3b],< 100,100 to 1000
CCS(=O)(=O)c1ccc([C@@H](CO)NC(=O)c2ccc3c(c2)CN(C[C@H]2CC[C@H](C(F)(F)F)CC2)[C@H]3C(C)C)cc1 [Compound 3c],< 100,< 100
CCS(=O)(=O)c1ccc([C@@H](CO)NC(=O)c2ccc3c(c2)CN(C[C@H]2CC[C@H](C(F)(F)F)CC2)[C@@H]3C(C)C)cc1 [Compound 3d],< 100,> 1000
CC(C)[C@H]1c2ccc(C(=O)NCC3CCN(S(C)(=O)=O)CC3)cc2CN1C[C@H]1CC[C@H](C(F)(F)F)CC1 [Compound 4a],< 100,< 100
CC(C)[C@@H]1c2ccc(C(=O)NCC3CCN(S(C)(=O)=O)CC3)cc2CN1C[C@H]1CC[C@H](C(F)(F)F)CC1 [Compound 4b],100 to 1000,
CCS(=O)(=O)c1ccc([C@H](CCO)NC(=O)c2ccc3c(c2)CN(C[C@H]2CC[C@H](C(F)(F)F)CC2)[C@H]3C(C)C)cc1 [Compound 6a],< 100,< 100
CCS(=O)(=O)c1ccc([C@H](CCO)NC(=O)c2ccc3c(c2)CN(C[C@H]2CC[C@H](C(F)(F)F)CC2)[C@@H]3C(C)C)cc1 [Compound 6b],< 100,100 to 1000
"CCS(=O)(=O)N1CCC(CNC(=O)c2ccc3c(c2)CN(CC2CCC(OC)(C(F)(F)F)CC2)C3C(C)C)CC1 (centres unmarked) [Compound 13c and 13d, N-((1-(ethylsulfonyl)piperidin-4-yl)methyl)-1-isopropyl-2-((4-methoxy-4-(trifluoromethyl)cyclohexyl)methyl)isoindoline-5-carboxamide]",100 to 1000,
CC[C@H]1c2ccc(C(=O)NCc3ccc(S(=O)(=O)NC)cc3)cc2CN1C[C@H]1CC[C@H](C(F)(F)F)CC1 [Compound 22],< 100,< 100
CC[C@H]1c2ccc(C(=O)NCc3ccc(S(=O)(=O)NC)cn3)cc2CN1C[C@H]1CC[C@H](C(F)(F)F)CC1 [Compound 23a],< 100,< 100
CC[C@@H]1c2ccc(C(=O)NCc3ccc(S(=O)(=O)NC)cn3)cc2CN1C[C@H]1CC[C@H](C(F)(F)F)CC1 [Compound 23b],< 100,100 to 1000
CCS(=O)(=O)c1ccc(CNC(=O)c2ccc3c(c2)C(=O)N(Cc2ccc(C(F)(F)F)cc2)C3C(C)C)nc1 (centres unmarked) [Compound 27],< 100,100 to 1000
CCS(=O)(=O)c1ccc([C@H](CO)NC(=O)c2ccc3c(c2)C(=O)N(Cc2ccc(C(F)(F)F)cc2)C3C(C)C)cc1 (some centres unmarked) [Compound 28],< 100,< 100
"CCC1(C)c2ccc(C(=O)NCc3ccc(S(=O)(=O)CC)cc3)cc2C(=O)N1CC1CCC(C(F)(F)F)CC1 (centres unmarked) [Compound 31, 1-ethyl-N-(4-(ethylsulfonyl)benzyl)-1-methyl-3-oxo-2-((4-(trifluoromethyl)cyclohexyl)methyl)isoindoline-5-carboxamide]",> 1000,
